From patent publication US9353051B2, “Antiviral drugs for treatment or prevention of dengue infection” (Siga Technologies Inc., priority 2007, dated 2016)
Like-named read-outs stand apart in the source and are kept apart here.

How the values were obtained:
[1] = tested on: Dengue-2 (Strain New Guinea C); experiment: viral yield assay against Dengue-2 in Vero cells; type: cell-based; details: Dengue virus; for EC90: read-out: EC90 Yield Den-2
Summary of the method: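 Vero cells infected with dengue-2 at MOI 0.1 were treated with compound (DMSO control) at 37° C., harvested 48 h post infection and titered on Vero cells.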

Den-1 = experiment: viral yield assay against Den-1; type: cell-based; details: Dengue virus
Den-3 = experiment: viral yield assay against Den-3; type: cell-based; details: Dengue virus
Den-4 = experiment: viral yield assay against Den-4; type: cell-based; details: Dengue virus
Modoc = experiment: specificity: activity against Modoc; type: cell-based, murine flavivirus; details: Orthoflavivirus, in Mus musculus
Description: (§1) Select compounds were also tested for more broad spectrum activity against other members of the Flaviviridae family including Modoc, which is a murine flavivirus, as well as Bovine Viral Diarrhea Virus (BVDV), which is a Pestivirus. Since dengue virus is able to replicate in multiple cell lines and to ensure that the activity seen in vero cells is consistent, select compounds were also tested for their effective concentration in a viral yield assay against dengue-2 in C6/36 mosquito cells.

[2] = tested on: Bovine Viral Diarrhea Virus (BVDV); experiment: specificity: activity against BVDV; type: cell-based
Description: as §1

[3] = tested on: dengue-2 in C6/36 mosquito cells; experiment: viral yield assay against dengue-2 in C6/36 mosquito cells; type: cell-based; details: Dengue virus, dengue-2, C6/36 mosquito cells, read-out: Specificity C6/36
Description: as §1

dengue [4] = details: mouse model; cited from earlier work
dengue [5] = details: cited from earlier work
[6] = Vero cells, MOI 0.1, harvested 48 hours post infection, read-out: Activity (anti-dengue 2 viral activity, EC50)
[7] = viral yield assay, Vero cells, read-out: EC50 Yield Den-2
[8] = Bovine viral diarrhea virus isolates and strains, read-out: Specificity BVDV
[9] = Bovine viral diarrhea virus isolates and strains; read-out: Specificity BVDV

| Compound | EC50 [1, 6] [µM] | EC50 [1, 7] [µM] | EC90 ([1]; viral yield assay, Vero cells) [µM] | EC50 (Den-1) [µM] | EC90 (Den-1) [µM] | EC50 (Den-3) [µM] | EC90 (Den-3) [µM] | EC50 (Den-4) [µM] | EC90 (Den-4) [µM] | EC50 (Modoc) [µM] | EC50 [2, 8] [µM] | EC50 [3] [µM] | EC50 [2, 9] [µM] | EC50 ([1]; Vero, 48 h, read-out: Activity (anti-dengue 2 viral activity, EC50)) [µM] | protection against dengue (dengue [4]) | adverse effects induced (dengue [5]; animal models of dengue (mouse or rhesus monkey, not specified)) | protection against dengue (dengue [5]; rhesus monkey model) |
| --- | --- | --- | --- | --- | --- | --- | --- | --- | --- | --- | --- | --- | --- | --- | --- | --- | --- |
| CCN(CC)S(=O)(=O)c1ccc(NC(=O)Cn2cnc3ccccc3c2=O)cc1 [Compound 1, N-(4-Diethylsulfamoyl-phenyl)-2-(4-oxo-4H-quinazolin-3-yl)-acetamide] | < 1 | 0.3 | 5.2 | 4.3 | 10.7 | 1 | 8.2 | 1.7 | 4.1 | 1.2 | > 50 | 0.3 | – | – | – | – | – |
| CCN(CC)S(=O)(=O)c1ccc(OC)c(NC(=O)C(C)C)c1 [Compound 2, N-(5-Diethylsulfamoyl-2-methoxy-phenyl)-isobutyramide] | < 1 | 0.3 | 4.1 | 7.6 | 8.9 | 5.5 | 13.3 | 2.1 | 12.5 | 6.2 | > 50 | 0.7 | – | – | – | – | – |
| CCN(CC)S(=O)(=O)c1ccc(NC(=O)Cn2nnc3ccccc3c2=O)cc1 [Compound 3, N-(4-Diethylsulfamoyl-phenyl)-2-(4-oxo-4H-benzo[d][1,2,3]triazin-3-yl)-acetamide] | 1 to 10 | 4 | 10 | 1.3 | 5.1 | 1 | 12.1 | 2.3 | 10 | 3.1 | > 50 | – | – | – | – | – | – |
| CCN(CC)S(=O)(=O)c1ccc(NC(=O)Cn2cnc3c2c(=O)n(C)c(=O)n3C)cc1 [Compound 4, N-(4-Diethylsulfamoyl-phenyl)-2-(1,3-dimethyl-2,6-dioxo-1,2,3,6-tetrahydro-purin-7-yl)-acetamide] | 1 to 10 | 7.8 | 8.9 | – | – | 13.5 | 22.6 | 4.3 | 22.7 | > 25 | – | – | > 50 | – | – | – | – |
| CCN(CC)S(=O)(=O)c1ccc(C)c(NC(=O)Cn2cnc3cc([N+](=O)[O-])ccc3c2=O)c1 [Compound 12, N-(5-Diethylsulfamoyl-2-methyl-phenyl)-2-(7-nitro-4-oxo-4H-quinazolin-3-yl)-acetamide] | – | 11.1 | > 25 | > 25 | > 25 | 2.9 | > 25 | 5.2 | 14.6 | > 25 | > 50 | – | – | 1 to 10 | – | – | – |
| CCN(CC)S(=O)(=O)c1ccc(OC)c(NC(=O)Cn2cnc3c2c(=O)n(C)c(=O)n3C)c1 [Compound 13, N-(5-Diethylsulfamoyl-2-methoxy-phenyl)-2-(1,3-dimethyl-2,6-dioxo-1,2,3,6-tetrahydro-purin-7-yl)-acetamide] | 1 to 10 | 2.4 | 10.3 | 7.1 | 8.5 | 4.1 | 9.4 | 1.9 | 9.2 | > 25 | 47.7 | 2.1 | – | – | – | – | – |
| CCCC(=O)Nc1cc(S(=O)(=O)N(CC)CC)ccc1OC [Compound 14, N-(5-Diethylsulfamoyl-2-methoxy-phenyl)-butyramide] | 1 to 10 | 3.6 | 27.5 | > 25 | > 25 | 4.2 | 14.9 | 4.8 | 11.1 | > 25 | – | – | > 50 | – | – | – | – |
| CCN(CC)S(=O)(=O)c1ccc(OC)c(NC(=O)CC(C)C)c1 [Compound 15, N-(5-Diethylsulfamoyl-2-methoxy-phenyl)-3-methyl-butyramide] | 1 to 10 | 2.4 | > 100 | – | – | – | – | 1.2 | 37.2 | 10.1 | > 50 | – | – | – | – | – | – |
| CCN(CC)S(=O)(=O)c1ccc(OC)c(NC(=O)Cc2ccccc2)c1 [Compound 16, N-(5-Diethylsulfamoyl-2-methoxy-phenyl)-2-phenyl-acetamide] | 1 to 10 | 5.8 | 10.3 | – | – | – | – | 2.1 | 6.4 | 3.6 | > 50 | – | – | – | – | – | – |
| CCCCC(=O)Nc1cc(S(=O)(=O)N(CC)CC)ccc1OC [Compound 21, Pentanoic acid (5-diethylsulfamoyl-2-methoxy-phenyl)-amide] | 10 to 25 | 14.2 | 24.1 | – | – | – | – | 8.2 | 12 | 6 | > 50 | – | – | – | – | – | – |
| NC(=O)c1ncn([C@@H]2O[C@H](CO)[C@@H](O)[C@H]2O)n1 [ribavirin] | – | – | – | – | – | – | – | – | – | – | – | – | – | – | did not show protection | induced anemia and thrombocytosis | did not show protection |
